Experimental data from paper PMC10536928, “Discovery of New Pyrrolo[2,3-d]pyrimidine Derivatives as Potential Multi-Targeted Kinase Inhibitors and Apoptosis Inducers” (Pharmaceuticals, 2023).

How the values were obtained:
CDK2 = target: T1, CDK2 (Homo sapiens, UniProt P24941); experiment: In vitro protein kinase inhibition assay (ELISA kit); assay type: biochemical; conditions: triplicate
T1 construct: purchased
Experimental: (§1) In accordance with the documented procedures, fifteen derivatives of the synthesized compounds were evaluated for their inhibitory effects on EGFR, VEGFR-2, Her2, and CDK2 using specific human ELISA kits (Enzyme-Linked Immunosorbent Assay) designed for each respective kinase enzyme. Initially, various concentrations of the synthesized compounds were combined with specific antibodies for each enzyme in individual wells of a 96-well plate, followed by incubation at room temperature for 2.5 h. Subsequently, the plate was washed, and a biotin antibody (100 µL), prepared in-house, was added and allowed to incubate at ambient temperature for 1 h. After another washing step, a solution of streptavidin (100 µL) was introduced to each well and left for 45 min at room temperature. Following a third round of washing, a TMB Substrate (100 µL) reagent was applied to all wells and incubated for 30 min at room temperature. Finally, the reaction was terminated by adding 50 µL of a stop solution, and the absorbance was directly measured at 450 nm. A standard curve was constructed, illustrating the relationship between concentration (X-axis) and absorbance (Y-axis).

VEGFR2 = target: T2, VEGFR2 (Homo sapiens, UniProt P35968); experiment: as above; assay type: biochemical; conditions: triplicate
T2 construct: purchased
T2 sequence (P35968 20-1356): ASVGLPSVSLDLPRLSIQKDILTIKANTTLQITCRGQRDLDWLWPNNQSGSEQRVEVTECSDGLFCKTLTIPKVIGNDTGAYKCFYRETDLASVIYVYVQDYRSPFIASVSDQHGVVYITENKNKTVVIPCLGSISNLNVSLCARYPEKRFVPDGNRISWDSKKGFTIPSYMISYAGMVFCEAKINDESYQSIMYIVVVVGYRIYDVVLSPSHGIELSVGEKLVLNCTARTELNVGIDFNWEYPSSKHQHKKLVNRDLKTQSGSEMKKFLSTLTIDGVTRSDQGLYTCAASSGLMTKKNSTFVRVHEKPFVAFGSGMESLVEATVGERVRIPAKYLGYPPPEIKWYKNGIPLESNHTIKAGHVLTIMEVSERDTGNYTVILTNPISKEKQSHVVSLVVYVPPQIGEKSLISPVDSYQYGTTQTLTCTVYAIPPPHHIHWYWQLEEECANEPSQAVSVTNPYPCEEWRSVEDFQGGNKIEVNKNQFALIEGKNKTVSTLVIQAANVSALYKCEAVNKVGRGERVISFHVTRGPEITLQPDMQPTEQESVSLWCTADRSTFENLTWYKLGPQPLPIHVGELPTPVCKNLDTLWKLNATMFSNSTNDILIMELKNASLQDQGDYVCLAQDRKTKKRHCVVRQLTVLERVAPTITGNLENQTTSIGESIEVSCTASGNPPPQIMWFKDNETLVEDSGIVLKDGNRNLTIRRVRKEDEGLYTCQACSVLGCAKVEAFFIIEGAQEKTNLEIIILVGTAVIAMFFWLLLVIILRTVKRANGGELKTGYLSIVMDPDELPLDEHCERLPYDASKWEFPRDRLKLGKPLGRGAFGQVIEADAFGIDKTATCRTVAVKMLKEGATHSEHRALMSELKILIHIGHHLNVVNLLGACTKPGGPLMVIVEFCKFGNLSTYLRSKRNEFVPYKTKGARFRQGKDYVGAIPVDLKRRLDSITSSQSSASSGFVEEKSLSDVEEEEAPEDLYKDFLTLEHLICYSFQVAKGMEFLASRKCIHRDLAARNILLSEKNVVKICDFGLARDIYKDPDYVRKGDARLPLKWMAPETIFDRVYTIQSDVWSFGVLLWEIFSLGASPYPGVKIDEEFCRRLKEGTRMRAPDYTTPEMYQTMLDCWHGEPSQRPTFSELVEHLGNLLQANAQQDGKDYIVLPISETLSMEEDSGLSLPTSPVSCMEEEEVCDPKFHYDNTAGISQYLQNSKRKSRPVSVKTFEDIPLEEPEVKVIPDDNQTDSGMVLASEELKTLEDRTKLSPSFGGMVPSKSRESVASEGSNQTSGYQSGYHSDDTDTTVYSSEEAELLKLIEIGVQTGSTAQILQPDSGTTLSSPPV
Experimental: as §1

EGFR = target: T3, EGFR (Homo sapiens, UniProt P00533); experiment: as above; assay type: biochemical; conditions: triplicate
T3 construct: purchased
T3 sequence (P00533 25-1210): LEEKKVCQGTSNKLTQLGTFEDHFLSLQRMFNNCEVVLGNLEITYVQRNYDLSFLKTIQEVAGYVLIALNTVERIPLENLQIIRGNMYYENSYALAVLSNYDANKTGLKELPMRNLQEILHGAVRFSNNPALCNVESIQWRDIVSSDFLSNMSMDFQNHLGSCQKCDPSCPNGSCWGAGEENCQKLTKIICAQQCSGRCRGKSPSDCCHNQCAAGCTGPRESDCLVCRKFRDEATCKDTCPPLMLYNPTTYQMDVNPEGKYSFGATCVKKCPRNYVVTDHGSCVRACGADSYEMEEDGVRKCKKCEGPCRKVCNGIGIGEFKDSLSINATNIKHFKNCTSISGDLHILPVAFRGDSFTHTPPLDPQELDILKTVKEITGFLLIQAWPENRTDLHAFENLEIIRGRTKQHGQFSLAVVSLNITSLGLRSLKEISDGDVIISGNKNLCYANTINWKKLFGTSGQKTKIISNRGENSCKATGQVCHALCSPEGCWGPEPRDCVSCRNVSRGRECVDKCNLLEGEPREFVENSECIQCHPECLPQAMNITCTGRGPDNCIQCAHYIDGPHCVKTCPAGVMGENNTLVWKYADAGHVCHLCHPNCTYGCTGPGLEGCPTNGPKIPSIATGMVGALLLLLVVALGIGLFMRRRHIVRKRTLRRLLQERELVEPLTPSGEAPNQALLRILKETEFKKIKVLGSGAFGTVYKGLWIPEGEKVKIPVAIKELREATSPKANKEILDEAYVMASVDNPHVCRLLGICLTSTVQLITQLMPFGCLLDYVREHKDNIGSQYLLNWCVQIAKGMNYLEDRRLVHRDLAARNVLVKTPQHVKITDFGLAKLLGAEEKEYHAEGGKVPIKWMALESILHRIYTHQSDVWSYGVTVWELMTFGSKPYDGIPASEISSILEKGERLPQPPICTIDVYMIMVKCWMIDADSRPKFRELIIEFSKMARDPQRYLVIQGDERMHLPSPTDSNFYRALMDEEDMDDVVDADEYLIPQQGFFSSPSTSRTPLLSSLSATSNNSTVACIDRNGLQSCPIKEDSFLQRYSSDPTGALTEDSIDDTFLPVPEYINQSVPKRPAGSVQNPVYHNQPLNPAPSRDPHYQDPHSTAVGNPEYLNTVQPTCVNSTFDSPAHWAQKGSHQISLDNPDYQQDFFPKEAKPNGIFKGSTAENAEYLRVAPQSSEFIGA
Experimental: as §1

Bcl-2 = experiment: Apoptotic protein levels assay (ELISA) in HepG2 cells; assay type: cell-based
From the text: (§2) To validate the mechanism of cell death and the induction of apoptosis caused by compound 5k, the expression levels of some apoptotic proteins were investigated. […] Specifically, the levels of caspase-3 (6.9 folds higher than the control) and Bax (2.6 folds higher than the control) were higher in the group treated with 5k compared to the control group. Caspase-3 is a key enzyme involved in the execution of apoptosis, while Bax is a pro-apoptotic protein that promotes cell death. […] Bcl-2 is a protein that inhibits apoptosis, so the lower levels of Bcl-2 in the 5k treated group further support the notion that treatment with 5k may induce apoptosis in HepG2 cells. […] These findings may have implications for the development of novel therapies for diseases involving abnormal cell death, including cancer. Further studies are warranted in order to elucidate the underlying mechanisms of action of compound 5k and to assess its potential therapeutic applications.
(§3) The ELISA technique was employed to assess the impact of compound 5k on the alteration of protein levels associated with caspase-3, BAX, and Bcl-2. Specifically, the following ELISA kits were utilized: KHO1091 (InvitrogenTM, Grand Island, NY, USA) for caspase-3, EIA-4860 and EIA-4487 for BAX, (DRU International INC., Mountainside, NJ, USA), and 99-0042 (InvitrogenTM, Grand Island, NY, USA) for Bcl-2 for the respective measurements. The experimental procedures were conducted according to the instructions provided by the manufacturers and our recently published article. Initially, HepG2 cells were cultured in triplicate in 96-well plates. Following a 24-h incubation period, the cells were subjected to various concentrations of compound 5k, while a control group was treated with 0.1% DMSO (V/V). After an additional 24-h incubation, the absorbance levels were assessed using a BioTek Synergy H1 Multi-mode Reader (Agilent Technologies, Santa Clara, CA, USA) at wavelengths ranging from 450 to 650 nm.

Bax = experiment: as above; assay type: cell-based
From the text: as §2, §3

caspase-3 = experiment: as above; assay type: cell-based
From the text: as §2, §3

IC50 (CDK2): 204 nM
IC50 (VEGFR2): 136 nM
IC50 (EGFR): 79 nM
Compound: O=C(N/N=C/c1ccc(Cl)c(Cl)c1)c1ccc(Nc2ncnc3[nH]ccc23)cc1 [Compound 5k, (E)-4-((7H-Pyrrolo[2,3-d]pyrimidin-4-yl)amino)-N’-(3,4-dichlorobenzylidene)benzohydrazide]
Bcl-2 level relative to the control (Bcl-2): two-fold lower than the control
Protein Expression (Pg/mL) Bcl-2 (Bcl-2; 24 h, ELISA, control 11.7 ± 0.36): 5.146 ± 0.09 pg/mL
Bax level, folds higher than the control (Bax): 2.6 folds
Protein Expression (Pg/mL) Bax (Bax; 24 h, ELISA, control 67.09 ± 4.94): 173.8 ± 6.61 pg/mL
caspase-3 level, folds higher than the control (caspase-3): 6.9 folds
Protein Expression (Pg/mL) Caspase-3 (caspase-3; 24 h, ELISA, control 66.28 ± 4.66): 453.8 ± 17.4 pg/mL
